Assay results taken from publication PMC3945162 (Psychopharmacology, 2013).
Where “and” joins values, the source holds several entries; their conditions need not be identical. Equal values may be shown once. Read-outs that look alike come from different tables or passages of the source.

Tests used:
[1] = target: T1, human 5-HT1A receptor (Homo sapiens, UniProt P08908); assay: [35S]GTPγS binding functional assay, HEK-5-HT1A; format: biochemical; conditions: for Emax: read-out: 5-HT1A Function [35S]GTPγS Binding % maximal effect
T1 sequence (P08908 1-422): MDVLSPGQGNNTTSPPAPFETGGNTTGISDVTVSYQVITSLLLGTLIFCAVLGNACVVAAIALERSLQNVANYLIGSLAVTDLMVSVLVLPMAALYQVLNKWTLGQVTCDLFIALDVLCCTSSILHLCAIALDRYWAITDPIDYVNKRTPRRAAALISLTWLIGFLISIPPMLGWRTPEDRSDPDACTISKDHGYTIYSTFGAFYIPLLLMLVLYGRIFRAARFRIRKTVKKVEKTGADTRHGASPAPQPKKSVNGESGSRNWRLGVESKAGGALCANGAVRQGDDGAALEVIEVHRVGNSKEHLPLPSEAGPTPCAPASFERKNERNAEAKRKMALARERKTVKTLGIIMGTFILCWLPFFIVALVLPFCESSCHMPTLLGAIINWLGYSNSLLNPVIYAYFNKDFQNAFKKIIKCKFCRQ

[2] = test system: Male Swiss–Webster mice; assay: Locomotor activity; format: in vivo, mouse
[3] = target: T2, hDAT (Homo sapiens, UniProt Q01959); assay: [3H]Dopamine release, HEK-hDAT cells; format: cell-based; conditions: HEK-hDAT cells
T2 sequence (Q01959 whole entry): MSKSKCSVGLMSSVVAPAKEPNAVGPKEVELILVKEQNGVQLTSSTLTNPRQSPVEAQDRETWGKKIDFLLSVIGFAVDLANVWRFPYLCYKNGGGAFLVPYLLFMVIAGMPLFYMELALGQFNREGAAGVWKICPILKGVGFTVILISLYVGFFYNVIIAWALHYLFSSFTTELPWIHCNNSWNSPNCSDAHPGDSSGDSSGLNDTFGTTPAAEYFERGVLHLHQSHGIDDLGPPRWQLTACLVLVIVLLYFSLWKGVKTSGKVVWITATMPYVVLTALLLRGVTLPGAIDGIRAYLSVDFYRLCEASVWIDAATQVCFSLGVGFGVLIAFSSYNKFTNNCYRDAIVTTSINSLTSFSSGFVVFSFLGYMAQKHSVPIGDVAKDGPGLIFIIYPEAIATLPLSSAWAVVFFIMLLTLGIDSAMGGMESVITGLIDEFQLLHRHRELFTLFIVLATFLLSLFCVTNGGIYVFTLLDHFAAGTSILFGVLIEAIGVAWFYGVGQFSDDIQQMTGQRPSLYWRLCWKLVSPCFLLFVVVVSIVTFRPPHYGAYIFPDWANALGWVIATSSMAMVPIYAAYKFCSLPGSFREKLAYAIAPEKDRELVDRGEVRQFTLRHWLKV

[4] = test system: rats trained to discriminate DOM (0.5 mg/kg) from saline; format: in vivo, rat; conditions: for Maximum %DAR (drug-appropriate responding): i.p., at dose of maximum DAR
[5] = target: T3, human 5-HT2C receptor (Homo sapiens, UniProt P28335); assay: cell-based; conditions: for Emax: read-out: 5-HT2C Function IP-formation % maximal effect
T3 sequence (P28335 33-458): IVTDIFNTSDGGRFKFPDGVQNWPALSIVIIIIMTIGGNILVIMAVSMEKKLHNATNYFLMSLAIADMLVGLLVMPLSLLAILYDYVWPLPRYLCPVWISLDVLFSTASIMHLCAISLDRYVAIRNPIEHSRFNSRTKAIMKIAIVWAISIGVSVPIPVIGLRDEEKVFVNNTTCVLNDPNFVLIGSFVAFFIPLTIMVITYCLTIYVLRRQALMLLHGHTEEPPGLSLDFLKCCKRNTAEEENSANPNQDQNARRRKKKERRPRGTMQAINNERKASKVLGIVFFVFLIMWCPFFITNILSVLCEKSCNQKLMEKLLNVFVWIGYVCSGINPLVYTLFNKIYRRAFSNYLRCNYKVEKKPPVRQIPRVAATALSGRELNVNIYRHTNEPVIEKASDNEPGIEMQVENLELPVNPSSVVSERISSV

[6] = test system: rats trained to discriminate MDMA (1.5 mg/kg) from saline; format: in vivo, rat; conditions: for Rate of responding at dose of maximum DAR / Maximum %DAR (drug-appropriate responding): MDMA-trained rats; for Maximum %DAR (drug-appropriate responding): i.p., at dose of maximum DAR
[7] = target: T4, hNET (Homo sapiens, UniProt P23975); assay: cell-based
T4 sequence (P23975 whole entry): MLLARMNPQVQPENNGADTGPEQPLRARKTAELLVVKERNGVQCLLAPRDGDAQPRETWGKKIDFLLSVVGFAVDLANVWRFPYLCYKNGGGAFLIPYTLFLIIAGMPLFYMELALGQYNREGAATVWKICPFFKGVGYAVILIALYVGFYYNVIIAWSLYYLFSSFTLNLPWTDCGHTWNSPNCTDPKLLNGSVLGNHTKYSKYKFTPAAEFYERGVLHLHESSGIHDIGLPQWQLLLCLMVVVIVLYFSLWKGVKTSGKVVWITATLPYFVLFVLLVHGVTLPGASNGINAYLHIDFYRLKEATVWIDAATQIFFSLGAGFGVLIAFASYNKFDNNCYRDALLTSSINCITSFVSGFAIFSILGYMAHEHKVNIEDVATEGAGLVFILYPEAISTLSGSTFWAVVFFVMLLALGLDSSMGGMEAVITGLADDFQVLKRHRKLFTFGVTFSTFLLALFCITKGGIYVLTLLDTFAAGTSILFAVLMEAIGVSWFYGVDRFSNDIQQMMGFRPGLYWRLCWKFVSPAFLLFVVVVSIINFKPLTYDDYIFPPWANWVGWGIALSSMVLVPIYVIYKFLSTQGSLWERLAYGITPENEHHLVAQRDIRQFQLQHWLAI

[8] = target: T5, hSERT (Homo sapiens, UniProt P31645); assay: [125I]RTI-55 binding, HEK-hSERT cells
T5 sequence (P31645 whole entry): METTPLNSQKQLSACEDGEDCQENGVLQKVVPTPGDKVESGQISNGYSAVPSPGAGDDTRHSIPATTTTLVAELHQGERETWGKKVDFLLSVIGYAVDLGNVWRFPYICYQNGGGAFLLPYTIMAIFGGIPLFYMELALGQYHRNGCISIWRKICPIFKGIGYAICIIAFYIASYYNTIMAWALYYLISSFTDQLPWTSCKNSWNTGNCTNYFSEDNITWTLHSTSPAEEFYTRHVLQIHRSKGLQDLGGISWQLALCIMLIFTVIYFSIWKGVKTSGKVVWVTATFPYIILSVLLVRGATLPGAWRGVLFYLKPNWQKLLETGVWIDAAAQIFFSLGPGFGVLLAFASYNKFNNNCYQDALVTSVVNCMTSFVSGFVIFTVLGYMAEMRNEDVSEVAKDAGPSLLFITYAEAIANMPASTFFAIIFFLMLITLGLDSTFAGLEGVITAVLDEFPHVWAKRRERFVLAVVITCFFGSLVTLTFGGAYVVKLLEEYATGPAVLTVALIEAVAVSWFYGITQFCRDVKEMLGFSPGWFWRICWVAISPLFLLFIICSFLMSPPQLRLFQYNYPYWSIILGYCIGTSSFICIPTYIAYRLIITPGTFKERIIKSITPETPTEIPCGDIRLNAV

[9] = target: T5, hSERT; assay: [3H]Serotonin uptake, HEK-hSERT cells; format: cell-based
[10] = target: T2, hDAT; assay: [3H]Dopamine uptake, HEK-hDAT cells; format: cell-based
[11] = target: T5, hSERT; assay: [3H]Serotonin release, HEK-hSERT cells; format: cell-based
[12] = target: T1, human 5-HT1A receptor; assay: [3H]8-OH-DPAT binding, HEK-5-HT1A
[13] = test system: rats trained to discriminate LSD (0.1 mg/kg) from saline; format: in vivo, rat; conditions: for Rate of responding at dose of maximum DAR / Maximum %DAR (drug-appropriate responding): LSD-trained rats; for Maximum %DAR (drug-appropriate responding): i.p., at dose of maximum DAR
[14] = target: T6, human 5-HT2A receptor (Homo sapiens, UniProt P28223); assay: [3H]AA release from HEK-5-HT2A cells; format: cell-based; conditions: for Emax: read-out: 5-HT2A Function [3H]AA release % maximal effect
T6 sequence (P28223 whole entry): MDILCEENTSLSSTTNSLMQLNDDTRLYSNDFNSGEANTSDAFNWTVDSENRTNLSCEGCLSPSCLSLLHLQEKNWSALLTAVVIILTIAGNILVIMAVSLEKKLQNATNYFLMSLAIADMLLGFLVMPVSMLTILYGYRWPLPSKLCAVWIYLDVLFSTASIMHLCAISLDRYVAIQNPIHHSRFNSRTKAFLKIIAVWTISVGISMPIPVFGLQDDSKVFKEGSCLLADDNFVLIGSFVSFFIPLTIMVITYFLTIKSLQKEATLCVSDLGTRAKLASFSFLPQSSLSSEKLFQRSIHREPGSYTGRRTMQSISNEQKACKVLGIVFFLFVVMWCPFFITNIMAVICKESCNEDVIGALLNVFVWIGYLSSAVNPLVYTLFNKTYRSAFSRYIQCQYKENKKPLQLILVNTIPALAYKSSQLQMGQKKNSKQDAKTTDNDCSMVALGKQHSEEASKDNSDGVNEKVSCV

[15] = target: T2, hDAT; assay: [125I]RTI-55 binding, HEK-hDAT cells
[16] = target: T4, hNET; assay: cell-based; remark: listed apart in the source
[17] = test system: rats trained to discriminate METH (1 mg/kg) from saline; format: in vivo, rat
[18] = target: T3, human 5-HT2C receptor; assay: biochemical; format: binding
[19] = test system: rats trained to discriminate DMT (5 mg/kg) from saline; format: in vivo, rat; conditions: for Rate of responding at dose of maximum DAR / Maximum %DAR (drug-appropriate responding): DMT-trained rats; for Dose(s) that decreased response rate: rat, in vivo; for Maximum %DAR (drug-appropriate responding): i.p., at dose of maximum DAR
[20] = target: T6, human 5-HT2A receptor; assay: IP-1 formation, HEK-5-HT2A cells; format: cell-based; conditions: for Emax: read-out: 5-HT2A Function IP-1 formation % maximal effect
[21] = test system: Male Sprague-Dawley rats; assay: Adverse effects observed during drug discrimination test sessions; format: in vivo, rat
[22] = target: T4, hNET; assay: biochemical; format: binding
[23] = target: T6, human 5-HT2A receptor; assay: [125I]DOI binding, HEK-5-HT2A cells
[24] = test system: 5-HT2A; conditions: ref McLean et al. 2006; cited from earlier work
[25] = METH-trained rats, 15 min pretreatment
[26] = 10 mg/kg, METH-trained rats, 15 min

COc1cc(CCN)c(OC)cc1Cl [2C-C, 2,5-dimethoxy-4-chlorophenethylamine]
EC50 [1]: > 10000 nM
Emax [1]: < 25%
Convulsions (mice affected/tested) ([2]; 100 mg/kg i.p., at 30 min): 2/8
Tremors (mice affected/tested) ([2]; 100 mg/kg i.p., at 30 min): 6/8
Lethality (mice) ([2]; 100 mg/kg i.p., within 120 min): 1/8
Onset of depressant effects (within, after injection) ([2]; mice, i.p.): ≤ 10 min
[3H]Dopamine release % METH maximal effect [3]: ND Minimal
Rate of responding at dose of maximum DAR ([4]; 15 min pretreatment): 0.366±0.070 resp/s
Maximum %DAR (drug-appropriate responding) ([4]; 15 min pretreatment): 82±16 %
EC50 [5]: 24.2 ± 5.6 nM
Emax [5]: 93.5 ± 6.5%
Rate of responding at dose of maximum DAR ([6]; 15 min pretreatment): 0.244±0.086 resp/s
Maximum %DAR (drug-appropriate responding) ([6]; 15 min pretreatment): 89±11 %
Dose(s) that decreased response rate ([6]; rat, in vivo): 2.5 mg/kg
[3H]NE release % METH maximal effect [7]: ND Minimal
Ki [8]: > 10000 nM
IC50 [9]: > 9600 nM
IC50 [10]: > 10000 nM
[3H]Serotonin release % PCA maximal effect [11]: ND Minimal
Ki [12]: 740 ± 170 nM
Rate of responding at dose of maximum DAR ([13]; 15 min pretreatment): 0.200±0.079 resp/s
Maximum %DAR (drug-appropriate responding) ([13]; 15 min pretreatment): 75% and 75±25 ^2%
Dose(s) that decreased response rate ([13]; rat, in vivo): 10 mg/kg
EC50 [14]: 13.9 ± 6.1 nM
Emax [14]: 64.2 ± 2.2%
Ki [15]: > 10000 nM
IC50 [16]: > 9500 nM
Rate of responding at dose of maximum DAR [17, 25]: 0.156±0.096 resp/s
Dose(s) that decreased response rate ([17]; rat, in vivo): 25 mg/kg
Ki [18]: 5.4 ± 1.2 nM
Rate of responding at dose of maximum DAR ([19]; 15 min pretreatment): 0.235±0.098 resp/s
Dose(s) that decreased response rate [19]: 10 mg/kg
EC50 [20]: 40.1 ± 4.7 nM
Emax [20]: 102 ± 5.5%
Reddening of the extremities (rats affected/tested) ([21]; 25 mg/kg i.p.): 3/3
Salivation (rats affected/tested) ([21]; 25 mg/kg i.p.): 1/3
Ki [22]: > 7600 nM
Ki [23]: 5.47 ± 0.68 nM

COc1cc(CCN)c(OC)cc1C [2C-D, 2,5-dimethoxy-4-methylphenethylamine]
EC50 [1]: > 10000 nM
Emax [1]: < 25%
Lethality (mice) ([2]; 100 mg/kg i.p., within 30 min): 8/8
Doses producing stimulant effects on locomotor activity ([2]; mice, i.p.): 3 mg/kg
Duration of depressant effects ([2]; mice, i.p.): 20 to 40 min
Duration of stimulant effects ([2]; mice, i.p.): 180 min
Onset of depressant effects (within, after injection) ([2]; mice, i.p.): ≤ 10 min
Onset of stimulant effects (within, after injection) ([2]; mice, i.p.): ≤ 50 min
[3H]Dopamine release % METH maximal effect [3]: ND Minimal
Rate of responding at dose of maximum DAR ([4]; 15 min pretreatment): 0.383±0.038 resp/s
Rate of responding at dose of maximum DAR ([4]; 70 min pretreatment): 0.338±0.187 resp/s
Maximum %DAR (drug-appropriate responding) ([4]; 15 min pretreatment): 100±0 %
EC50 [5]: 71.1 ± 8 nM
Emax [5]: 100 ± 14%
Rate of responding at dose of maximum DAR ([6]; 15 min pretreatment): 0.402±0.073 resp/s
Rate of responding at dose of maximum DAR ([6]; 70 min pretreatment): 0.547±0.127 resp/s
Maximum %DAR (drug-appropriate responding) ([6]; 15 min pretreatment): 61% and 61±20 ^2%
[3H]NE release % METH maximal effect [7]: ND Minimal
Ki [8]: > 10000 nM
IC50 [9]: > 8400 nM
IC50 [10]: > 10000 nM
[3H]Serotonin release % PCA maximal effect [11]: ND Minimal
Ki [12]: 1630 ± 150 nM
Rate of responding at dose of maximum DAR ([13]; 15 min pretreatment): 0.385±0.060 resp/s
Rate of responding at dose of maximum DAR ([13]; 70 min pretreatment): 0.379±0.054 resp/s
Maximum %DAR (drug-appropriate responding) ([13]; 15 min pretreatment): 83±17 %
Maximum %DAR (drug-appropriate responding) ([13]; 70 min pretreatment): 83±17 %
EC50 [14]: 153 ± 28 nM
Emax [14]: 81.1 ± 9.7%
Ki [15]: > 10000 nM
IC50 [16]: > 9200 nM
Rate of responding at dose of maximum DAR [17, 25]: 0.190±0.086 resp/s
Rate of responding at dose of maximum DAR ([17]; METH-trained rats, 70 min pretreatment): 0.072±0.032 resp/s
Maximum %DAR (drug-appropriate responding) ([17]; METH-trained rats, i.p., 15 min pretreatment, at dose of maximum DAR): 15±15 ^2%
Ki [18]: 12.7 ± 1.3 nM
Rate of responding at dose of maximum DAR ([19]; 15 min pretreatment): 0.154±0.070 resp/s
Rate of responding at dose of maximum DAR ([19]; 70 min pretreatment): 0.332±0.067 resp/s
Maximum %DAR (drug-appropriate responding) ([19]; 70 min pretreatment): 83±17 %
EC50 [20]: 145 ± 39 nM
Emax [20]: 93 ± 6.7%
Rats that failed to complete the first fixed ratio [21, 26]: 4/6
Reddening of the extremities (rats affected/tested) [21, 26]: 2/6
Rats with salivation and failure to complete the first fixed ratio ([21]; 50 mg/kg, 70 min): Two of three
Ki [22]: > 8500 nM
Ki [23]: 23.9 ± 3.9 nM

COc1cc(Br)c(OC)c2c1[C@H](CN)C2 [((R)-4-bromo-3,6-dimethoxybenzocyclobuten-1-yl)methyl-amine)]
Fold more potent at stimulating inositol phosphate turnover than AA release [24]: 65 fold

COc1cc(CC(C)N)c(OC)cc1Cl (stereo not drawn) [DOC, 2,5-Dimethoxy-4-chloroamphetamine]
EC50 [1]: > 10000 nM
Emax [1]: < 10%
Duration of depressant effects ([2]; mice, i.p.): 30 to 80 min
Onset of depressant effects (within, after injection) ([2]; mice, i.p.): ≤ 10 min
[3H]Dopamine release % METH maximal effect [3]: ND Minimal
Rate of responding at dose of maximum DAR ([4]; 15 min pretreatment): 0.708±0.072 resp/s
Rate of responding at dose of maximum DAR ([4]; 60 min pretreatment): 0.493±0.058 resp/s
Maximum %DAR (drug-appropriate responding) ([4]; 15 min pretreatment): 83±17 %
Maximum %DAR (drug-appropriate responding) ([4]; 60 min pretreatment): 87±13 %
EC50 [5]: 14.6 ± 3 nM
Emax [5]: 97 ± 19%
Rate of responding at dose of maximum DAR ([6]; 15 min pretreatment): 0.449±0.104 resp/s
Rate of responding at dose of maximum DAR ([6]; 60 min pretreatment): 0.356±0.141 resp/s
Maximum %DAR (drug-appropriate responding) ([6]; 60 min pretreatment): 60% and 60±24 ^2%
[3H]NE release % METH maximal effect [7]: ND Minimal
Ki [8]: > 10000 nM
IC50 [9]: > 8600 nM
IC50 [10]: > 10000 nM
[3H]Serotonin release % PCA maximal effect [11]: ND Minimal
Ki [12]: > 9200 nM
Rate of responding at dose of maximum DAR ([13]; 15 min pretreatment): 0.402±0.049 resp/s
Rate of responding at dose of maximum DAR ([13]; 60 min pretreatment): 0.410±0.139 resp/s
Maximum %DAR (drug-appropriate responding) ([13]; 15 min pretreatment): 81±16 %
Maximum %DAR (drug-appropriate responding) ([13]; 60 min pretreatment): 95±3 %
EC50 [14]: 2.91 ± 0.66 nM
Emax [14]: 81 ± 16%
Ki [15]: > 10000 nM
IC50 [16]: > 8400 nM
Rate of responding at dose of maximum DAR [17, 25]: 0.876±0.330 resp/s
Rate of responding at dose of maximum DAR ([17]; METH-trained rats, 60 min pretreatment): 0.276±0.098 resp/s
Ki [18]: 3.57 ± 0.56 nM
Rate of responding at dose of maximum DAR ([19]; 15 min pretreatment): 0.354±0.125 resp/s
Rate of responding at dose of maximum DAR ([19]; 60 min pretreatment): 0.777±0.095 resp/s
Maximum %DAR (drug-appropriate responding) ([19]; 60 min pretreatment): 83±17 %
Dose(s) that decreased response rate [19]: ≥ 1 mg/kg
EC50 [20]: 10.5 ± 2.6 nM
Emax [20]: 102 ± 4.2%
Ki [22]: > 7700 nM
Ki [23]: 4 ± 0.45 nM
